Experimental data published in US5952510A, “1,3-dihydro-1-(phenylalkenyl)-2H-imidazol-2-one derivatives having PDE IV and cytokine inhibiting activity” (Janssen Pharmaceutica, N.V., priority 1995, dated 1999).
pIC50: −log10 of the molar value.

Experiments:
[1] = test system: Dextran-induced oedema formation in mouse ear; assay: Dextran-induced oedema formation in mouse ear; type: in vivo, Male Swiss mice; conditions: 5 mg/kg, oral, one hour before intravenous dextran T500 + pontamine sky-blue dye; compared with background extravasation
Protocol: Dextran-induced oedema formation in mouse ear.
Systemic injection of dextran T500 in normal, non-sensitized mice elicits increased vascular permeability, leading to extravasation and oedema of the extremities. When dextran is injected together with a blue dye, blueing of the ears is the most prominent feature of oedematous response.
Male Swiss mice weighing 24-26 g were orally pretreated with the test compound dissolved in PEG-200 at different concentrations or solvent. One hour later, the mice were given an intravenous injection with an isotonic saline solution containing 12 mg/ml dextran T500 and 2.6 mg/ml pontamine sky-blue dye, in a volume of 0.1 ml per 10 g body weight. One hour and forty-five minutes later, the animals are sacrificed by ether and their ears removed. Extraction and quantification of the extravasated dye is done as described by Van Wauwe and Goossens (Drug Dev. Res. 1986, 8, 213-218).
The extravasation of the dye is characterized by the blueing value which is defined as the concentration of the extracted dye in both ears. The background blueing value was determined once as the mean blueing value obtained by injecting a group of mice with a saline solution containing only dextran T500 and the blue dye. Table 1 lists the percentage inhibition of the extravasation of the dye when compared with the background extravasation of the dye when the test compound was administered at a dose of 5 mg/kg.

[2] = biological target: T1, recombinant human MNL phosphodiesterase type IV B (Homo sapiens, UniProt Q07343); assay: Inhibition of recombinant human mononuclear lymphocyte (MNL) phosphodiesterase type IV B produced in insect cells with a baculovirus vector; type: biochemical; conditions: 0.8 μM 3H-cAMP, pH 8, 37° C., 10 min; calculated graphically
T1 construct: made in house; host or cells: insect cells infected with recombinant baculovirus
T1 sequence (Q07343 whole entry): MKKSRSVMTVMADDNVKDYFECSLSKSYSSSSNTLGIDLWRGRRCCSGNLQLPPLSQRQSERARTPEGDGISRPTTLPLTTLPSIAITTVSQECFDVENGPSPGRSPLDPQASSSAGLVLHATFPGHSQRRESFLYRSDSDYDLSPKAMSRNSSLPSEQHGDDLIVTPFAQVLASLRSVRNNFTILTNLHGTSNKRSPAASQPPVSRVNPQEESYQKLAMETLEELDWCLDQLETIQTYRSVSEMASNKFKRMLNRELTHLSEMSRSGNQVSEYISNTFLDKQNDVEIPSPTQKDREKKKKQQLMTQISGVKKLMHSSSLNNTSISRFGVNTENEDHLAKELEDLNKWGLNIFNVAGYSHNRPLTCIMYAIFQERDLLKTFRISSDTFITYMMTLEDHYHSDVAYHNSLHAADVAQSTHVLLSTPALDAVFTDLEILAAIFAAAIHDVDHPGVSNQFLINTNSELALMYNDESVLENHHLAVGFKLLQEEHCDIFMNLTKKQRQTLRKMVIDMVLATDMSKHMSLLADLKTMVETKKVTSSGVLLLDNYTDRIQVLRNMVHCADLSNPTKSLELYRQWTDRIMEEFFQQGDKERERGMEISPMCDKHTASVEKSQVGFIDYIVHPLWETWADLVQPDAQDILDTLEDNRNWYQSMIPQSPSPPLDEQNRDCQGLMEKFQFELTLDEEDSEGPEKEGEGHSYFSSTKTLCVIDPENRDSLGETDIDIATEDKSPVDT
Protocol: Inhibition of recombinant human mononuclear lymphocyte (MNL) phosphodiesterase type IV B produced in insect cells with a baculovirus vector, The alleviating and/or curing effect of the instant compounds on allergic and atopic diseases was assessed by an in vitro assay system to detect an inhibiting effect on the recombinant human MNL phosphodiesterase type IV B.
Seventy-two hours after infection with recombinant baculovirus, the insect cells were harvested and pelleted at 500 g for 5 minutes. The cells were lysed in 10 ml lysis-buffer consisting of 20 mM Tris, 10 mM EGTA, 2 mM Na2 EDTA, 1% Triton-X-100, 1 mM Na3 VO4, 10 mM NaF, 2 μg/ml of leupeptine, pepstatine and aprotinine, 0.3 μg/ml benzamidine and 100 μg/ml TPCK pH 7.5. After 5 minutes on ice, solubilized cells were centrifuged at 4000 rpm for 15 minutes at 4° C. The resulting supernatant was filtered through a 0.45 μm filter (Millipore) and brought to TBS buffer (50 mM Tris, 150 mM NaCl pH 7.4).
The supernatant containing phosphodiesterase (PDE) type IV B, was subsequently loaded onto a 5 ml anti-FLAG-M2 affinity gel column, previously activated with 5 ml 100 mM glycine pH 3.5 and equilibrated with 20 ml 50 mM Tris, 150 mM NaCl pH 7.4. After washing the column with equilibration buffer, PDE IV was eluted in 1.5 ml fractions containing 37.5 μl 1M Tris pH 8. The fractions were dialyzed overnight against 20 mM Tris, 2 mM Na2 EDTA and 400 mM NaCl pH 7.5 and tested for PDE IV activity. Indentification was done on SDS PAGE and Western Blot (anti-FLAG-M2). Active fractions were pooled, brought to 10% glycerol and stored at -70° C.
The incubation mixture (pH 8) (200 μl) contained 20 mM Tris, 10 mM magnesium sulphate, 0.8 μM ^3 H-cAMP (310 mCi/mmole) and the phosphodiesterase type IV, the amount depending on the enzymatic activity. […]
The inhibiting effect of the present compounds on recombinant human MNL phosphodiesterase PDE IV B was measured at different concentrations of the instant compounds. The IC50 values (expressed in M) were calculated graphically from the thus obtained inhibition values.

Which “% inhibition of the extravasation of the dye” value (shortened to “% inhibition”) [1] does the source give for `COc1ccc(C(=CN2CCN(C(C)=O)C2=O)c2ccccc2)cc1OC` [Compound 9, 1-acetyl-3-[2-(3,4dimethoxyphenyl)-2-phenylethenyl]-2-imidazolidinone] here?
Its value is 11.1%.

Which results are given for `CCOC(=O)C/C(=C\n1cc[nH]c1=O)c1ccc(OC)c(OC2CCCC2)c1` [Compound 4, ethyl (E)-3-(cyclopentyloxy)-β-[(2,3dihydro-2-oxo-1H-imidazol-1-yl)methylene]-4methoxybenzene-propanoate]?
pIC50 [2]: > 6.00; % inhibition of the extravasation of the dye [1]: 25.9%

With `COc1ccc(/C(=C\n2cc[nH]c2=O)CC(=O)O)cc1OC1CCCC1` [Compound 7, (Z)-3-(cyclopentyloxy)-β-[(2,3-dihydro-2-oxo-1H-imidazol-1-yl)methylene]4-methoxybenzenepropanoic acid] as the compound, how does the “% inhibition” value [1] read?
Its value is 49.9%.

Which “% inhibition” value [1] does the source give for `COc1ccc(/C(=C\n2ccn(C(c3ccccc3)c3ccccc3)c2=O)c2ccccc2)cc1OC1CCCC1` [Compound 11, (Z)-1-[2-[3-(cyclopentyloxy)-4-methoxyphenyl]-2-phenylethenyl]-3-(diphenylmethyl)-1,3-dihydro-2H-imidazol-2-one] here?
The value was 19.3%.

What does the source list for `COc1ccc(/C(=C/n2cc[nH]c2=O)c2ccccc2)cc1OC1CCCC1` [Compound 2, (E)-1-[2-[3-(cyclopentyloxy)-4-methoxyphenyl]-2-phenylethenyl]-1,3-dihydro-2H-imidazol-2-one]?
pIC50 [2]: > 6.00; % inhibition of the extravasation of the dye [1]: 15.5%

Which “% inhibition” value [1] does the source give for `COc1ccc(/C(=C/n2ccn(C(c3ccccc3)c3ccccc3)c2=O)c2ccccc2)cc1OC1CCCC1` [Compound 10, (E)-1-[2-[3-(cyclopentyloxy)-4-methoxyphenyl]-2-phenylethenyl]-3-(diphenylmethyl)-1,3dihydro-2H-imidazol-2-one] here?
Its value is 40.1%.

Which “% inhibition” value [1] does the source give for `COc1ccc(C(=CN2CCNC2=O)c2ccccc2)cc1OC` [Compound 8, 1-[2-(3,4-dimethoxyphenyl)-2-phenylethenyl]-2-imidazolidinone] here?
The value was 17.9%.

How did the pIC50 [2] turn out when `COc1ccc(/C(C)=C\n2ccn(C(c3ccccc3)c3ccccc3)c2=O)cc1OC1CCCC1` [Compound 12, (Z)-1-[2-[3-(cyclopentyloxy)-4-methoxyphenyl]-1-propenyl]-3-(diphenylmethyl)-2H-imidazol-2-one] was run?
Its pIC50 is > 6.00.
